Data set [1] can be described thus: Photochromic properties of binder sheet (photochromic layer prepared by binder method). As to conditions: 0.25 mmol per 100 parts by mass resin; for A23: 23°C color optical density ε(300)-ε(0); for Maximum absorption wavelength: urethaneurea resin binder sheet, after color development. It is filed as physicochemical. As to the method:
(§1) • [1] Maximum Absorption Wavelength (λmax): The maximum absorption wavelength after color development, measured using a spectrophotometer (instantaneous multichannel photodetector MCPD3000) manufactured by Otsuka Electronics Co., Ltd. was used as an indicator for the color tone during the color development. • [2] 23°C Color Optical Density (A23): A difference between an absorbancy measured after light irradiation at 23°C for 300 seconds {ε(300)} and an absorbancy without light irradiation ε(0) at the maximum absorption wavelength was used as an indicator for the color optical density. […] 23°C color fading half-life [τ1/2 (sec.)]: A time required for the absorbancy of the sample at the maximum absorption wavelength to decrease to 1/2 of {ε(300)-ε(0)} when the light irradiation was terminated after the light irradiation at 23°C for 300 seconds, was used as an indicator for the color fading speed. The shorter this time, the higher the color fading speed. • [4] Residual rate (A120/A0×100): The obtained photochromic plastic lens was subjected to accelerated deterioration using a xenon weather meter X25 manufactured by Suga Test Instruments Co., Ltd. for 120 hours. Subsequently, the color optical density was evaluated before and after the test, then a color optical density before the test (A0) and a color optical density after the test (A120) were measured, and a ratio (A120/A0) was defined as a residual rate. The residual rate was used as an indicator for a color developing durability. The higher the residual rate, the higher the color developing durability. The results of Examples 26, 50, and Comparative Examples 1 to 8 are summarized in Table 1, and the results of Examples 27 to 49 are summarized in Tables 2 and 3.
(§2) A binder sheet was prepared using the following method. The binder sheet consisted of a first optical sheet, a first adhesive layer, a photochromic layer, a second adhesive layer, and a second optical sheet, which are laminated in this order. The first optical sheet and the second optical sheet were made of a polycarbonate sheet with a thickness of 400 µm.
(§3) A 2L four-necked flask equipped with agitation blades, a cooling tube, a thermometer, and a nitrogen gas introducing tube was charged with 315 parts by mass of polycarbonate diol having a number-average molecular weight of 1000, 100 parts by mass of isophorone diisocyanate, and 72 parts by mass of toluene, and the mixture was reacted under nitrogen atmosphere at 100°C for 7 hours to synthesize a urethane prepolymer having an isocyanate group on its terminal. After completion of the urethane prepolymer reaction, the reaction liquid was cooled to approximately 0°C, then dissolved in 205 parts by mass of t-butyl alcohol and 382 parts by mass of diethyl ketone, and then the liquid temperature was maintained at 0°C. Subsequently, into this reaction liquid, a mixture of 21.3 parts by mass of bis-(4-aminocyclohexyl)methane as a chain extender and 20 parts by mass of diethyl ketone was dripped over within 30 minutes, and the mixture was reacted at 0°C for 1 hour. Then, into the mixture, 8.1 parts by mass of 1,2,2,6,6-pentamethyl-4-aminopiperidine was dripped, and the mixture was reacted at 0°C for 1 hour to obtain a diethyl ketone solution of a terminal non-reactive urethaneurea resin.
(§4) To 100 parts by mass of the obtained terminal non-reactive urethaneurea resin solution, the photochromic compound in Example 1 (represented by formula (28) above), 6.3 parts by mass of 4,4'-methylenebis(cyclohexyl isocyanate) isomer mixture (polyisocyanate compound), furthermore 0.4 part by mass of ethylene bis(oxyethylene)bis[3-(5-tert-butyl-4-hydroxy-m-tolyl)propionate] as an antioxidant, and 0.06 part by mass of DOW CORNING TORAY L-7001 as a surfactant were added, and the mixture was stirred and mixed at room temperature to obtain a photochromic layer forming composition. […]

Data set [2] can be described thus: Accelerated deterioration (xenon weather meter X25, 120 hours) of binder sheet prepared by binder method. In kind it is physicochemical. Particulars: 0.25 mmol per 100 parts by mass resin, A120/A0×100 after 120 hours xenon weather meter. The protocol: as §1, §2, §3, §4

Turning to `COc1ccc(C2(c3ccc(N(C)c4ccccc4)cc3)C=Cc3c4c(c5cc(-c6ccc(N7CCOCC7)cc6)c(OC)cc5c3O2)-c2ccccc2C4(C)C)cc1` (centres unmarked) [Example 1], the A23 was 0.97 - in data set [1] and 1.06 - in data set [1] (listed as Formula (37)). Moreover, the Maximum absorption wavelength in data set [1] worked out at 502 nm; in data set [1] (listed as Formula (37)), 603 nm. Also, the Residual rate in data set [2] is recorded as 89%; in data set [2] (listed as Formula (37)), 90%.
As for `CCN(c1ccc(OC)cc1)c1ccc(C2(c3ccc(OC)cc3)C=Cc3c4c(c5cc(-c6ccc(N7CCOCC7)cc6)c(OC)cc5c3O2)-c2ccccc2C4(C)C)cc1` (centres unmarked) [Example 25], in data set [1], the A23 is 0.88 - and the Maximum absorption wavelength is on record as 505 nm. In data set [1] (listed as Formula (88)), the A23 was 0.97 - and the Maximum absorption wavelength was determined as 606 nm. In data set [2], this molecule gave a Residual rate of 87%.
Turning to `CCCCN(c1ccccc1)c1ccc(C2(c3ccc(C)cc3)C=Cc3c4c(c5cc(N6CCOCC6)c(OC)cc5c3O2)-c2ccccc2C4(CC)CC)cc1` (centres unmarked) [Example 10], the A23 in data set [1] is given as 1.35 -; in data set [1] (listed as Formula (62)), 1.12 -. The Maximum absorption wavelength in data set [1] is reported as 516 nm; in data set [1] (listed as Formula (62)) it was 594 nm. This molecule had a Residual rate in data set [2] of 91%.
As to `CCCC1(CCC)c2ccccc2-c2c1c1c(c3cc(OC)c(-c4ccc(OC)cc4OC)cc23)OC(c2ccc(C)cc2)(c2ccc(N(C)c3ccccc3)cc2)C=C1` (centres unmarked) [Example 19], the figures for the A23 in data set [1] and in data set [1] (listed as Formula (80)) were 0.88 - and 1.14 -, respectively. Further, the Maximum absorption wavelength in data set [1] is given as 492 nm; in data set [1] (listed as Formula (80)) it was 604 nm. Besides, in data set [2], the Residual rate is 91%.
Regarding `COCCC1(CCOC)c2ccccc2-c2c1c1c(c3cc(OC)c(-c4ccc(N(c5ccccc5)c5ccccc5)cc4)cc23)OC(c2ccc(Oc3ccccc3)cc2)(c2ccc(N(C)c3ccccc3)cc2)C=C1` (centres unmarked) [Example 23], in data set [1], the A23 is 1.02 - and the Maximum absorption wavelength worked out at 506 nm. Also, in data set [1] (listed as Formula (85)), the A23 was 1.06 - and the Maximum absorption wavelength was determined as 609 nm. Besides, the Residual rate in data set [2] worked out at 89%.
Consider `CCCC1(CCC)c2cc(OC(F)(F)F)ccc2-c2c1c1c(c3cc(OC)c(Sc4c(C)cccc4C)cc23)OC(c2ccc(N(C)c3ccccc3)cc2)(c2ccc(OC)c(OC)c2)C=C1` (centres unmarked) [Example 57], for which the A23 in data set [1] is 0.85 -; in data set [1] (listed as Formula (110)), 0.87 -. Besides, the Maximum absorption wavelength is given as 493 nm in data set [1] and 618 nm in data set [1] (listed as Formula (110)). Moreover, the Residual rate in data set [2] is listed as 91%; in data set [2] (listed as Formula (110)) it was 90%.
As for `COc1ccc(N(C)c2ccc(C3(c4ccc(CCO[Si](C)(C)CC[Si](O[Si](C)(C)C)(O[Si](C)(C)C)O[Si](C)(C)C)cc4)C=Cc4c5c(c6cc(N(C)c7ccccc7)c(OC)cc6c4O3)-c3ccc(C(F)(F)F)cc3C53CCC(C)(C)CC3)cc2)cc1` (centres unmarked) [Example 60], the A23 is listed as 0.84 - in data set [1] and 0.87 - in data set [1] (listed as Formula (121)). Further, the results for the Maximum absorption wavelength in data set [1] and in data set [1] (listed as Formula (121)) were 524 nm and 582 nm, respectively. For the same molecule, the Residual rate in data set [2] is reported as 88%; in data set [2] (listed as Formula (121)), 89%.
Consider `CCCCOCCC1(CCOCCCC)c2ccccc2-c2c1c1c(c3cc(OC)c(NC(=O)c4ccccc4)cc23)OC(c2ccc(N(C)c3ccccc3)cc2)(c2ccc(OC)c(F)c2)C=C1` (centres unmarked) [Example 53], for which the figures for the A23 in data set [1] and in data set [1] (listed as Formula (95)) were 0.75 - and 0.96 -, respectively. Also, the Maximum absorption wavelength in data set [1] is recorded as 502 nm; in data set [1] (listed as Formula (95)), 607 nm. Moreover, the Residual rate in data set [2] is 87%; in data set [2] (listed as Formula (95)) it was 89%.
On to `COCCCCC1(CCCCOC)c2cc(Sc3c(C)cccc3C)ccc2-c2c1c1c(c3cc(OC)ccc23)OC(c2ccc(OC)cc2)(c2ccc(N(C)c3ccc(OC)cc3)cc2)C=C1` (centres unmarked) [Example 11], for which the A23 in data set [1] is recorded as 0.51 -; in data set [1] (listed as Formula (65)), 0.97 -. Moreover, the Maximum absorption wavelength in data set [1] was 479 nm; in data set [1] (listed as Formula (65)), 612 nm. Also, the Residual rate was 90% in data set [2] and 89% in data set [2] (listed as Formula (65)).

Source of the values: patent EP4692072A1, “PHOTOCHROMIC COMPOUND, PROPARGYL ALCOHOL COMPOUND, CURABLE COMPOSITION, OPTICAL ARTICLE, LENS, AND SPECTACLES” (TOKUYAMA CORPORATION, priority 2023, dated 2024).
